Assay results: ChEMBL document CHEMBL1125841, “Nucleosides and nucleotides. 96. Synthesis and antitumor activity of 5-ethynyl-1-beta-D-ribofuranosylimidazole-4-carboxamide (EICAR) and its derivatives” (J Med Chem, 1991)
Converted amounts (≈) assume the structure as drawn.

Tests used:
T-24 = experiment: In vitro inhibitory activity against growth of Human bladder transitional-cell carcinoma (T-24) cells; type: functional, cell-based
SW480 = experiment: In vitro inhibitory activity against growth of Human colon adenocarcinoma (SW-480) cells; type: functional, cell-based
Lu-65 = experiment: In vitro inhibitory activity against growth of Human gaint cell carcinoma (Lu-65) cells; type: functional, cell-based
KB = experiment: In vitro inhibitory activity against growth of Human oral epidermoid carcinoma (KB) cells; type: functional, cell-based
L1210 [1] = experiment: (§1) In vitro inhibitory activity against growth of murine L1210 cells.; type: functional, cell-based; details: Mus musculus
PC-13 = experiment: In vitro inhibitory activity against growth of Human large-cell carcinoma (PC-13) cells; type: functional, cell-based
HT-1080 = experiment: In vitro inhibitory activity against growth of Human fibrosarcoma (HT1080) cells; type: functional, cell-based
PC-3 = experiment: In vitro inhibitory activity against growth of Human lung adenocarcinoma (PC-3) cells.; type: functional, cell-based
OST = experiment: In vitro inhibitory activity against growth of Human osteosarcoma (OST) cells; type: functional, cell-based
PC-6 = experiment: In vitro inhibitory activity against growth of Human lung small-cell carcinoma (PC-6) cells; type: functional, cell-based
L1210 [2] = experiment: In vitro inhibitory activity against growth of murine L1210 cells at 100 ug/mL concentration; type: functional; details: Mus musculus
PC-8 = experiment: In vitro inhibitory activity against growth of Human lung adenocarcinoma (PC-8) cells; type: functional, cell-based
QG-56 = experiment: In vitro inhibitory activity against growth of Human lung squamous-cell carcinoma (QG-56) cells; type: functional, cell-based
HL-60 = experiment: In vitro inhibitory activity against growth of Human promyelocytic leukemia (HL-60) cells; type: functional, cell-based
HT-1376 = experiment: In vitro inhibitory activity against growth of Human bladder carcinoma (HT1376) cells; type: functional, cell-based
HOS = experiment: In vitro inhibitory activity against growth of Human osteogenic sarcoma (HOS) cells; type: functional, cell-based
Calu-1 = experiment: In vitro inhibitory activity against growth of Human epidermoid carcinoma (Calu-1) cells; type: functional, cell-based
KU-2 cell line = experiment: In vitro inhibitory activity against growth of Human renal-cell carcinoma (KU-2) cells; type: functional, cell-based
U-937 = experiment: In vitro inhibitory activity against growth of Human histocytic lymphoma (U937) cells; type: functional, cell-based
QG-90 = experiment: In vitro inhibitory activity against growth of Human lung small cell carcinoma (QG-90) cells; type: functional, cell-based
COLO 205 = experiment: In vitro inhibitory activity against growth of Human colon adenocarcinoma (COLO 205) cells.; type: functional, cell-based
K562 = experiment: In vitro inhibitory activity against growth of Human chronic myelogenous leukemia (K562 cells; type: functional, cell-based
RPMI-8226 = experiment: In vitro inhibitory activity against growth of Human myeloma (RPMI 8226) cells; type: functional, cell-based
CCRF-CEM = experiment: In vitro inhibitory activity against growth of Human acute lymphocytic leukemia (CCRF-CEM) cells; type: functional, cell-based
PANC-1 = experiment: In vitro inhibitory activity against growth of Human pancreas epitheloid carcinoma (PANC-1) cells; type: functional, cell-based
G-292 = experiment: In vitro inhibitory activity against growth of Human osteogenic sarcoma (G-292) cells; type: functional, cell-based; details: G292
SAOS-2 = experiment: In vitro inhibitory activity against growth of Human osteogenic sarcoma (Saos-2) cells; type: functional, cell-based
L1210 [3] = experiment: as §1; type: functional, Mus musculus

SMILES: NC(=O)c1ncn(C2O[C@H](CO)[C@@H](O)[C@H]2O)c1C#CCCO (some centres not stated)
- IC50 (T-24): 15 µg/mL (≈ 48.2 µM)
- IC50 (SW480): 6.2 µg/mL (≈ 19.9 µM)
- IC50 (Lu-65): 15 µg/mL (≈ 48.2 µM)
- IC50 (KB): 9.5 µg/mL (≈ 30.5 µM)
- IC50 (L1210 [1]): 1.28 µg/mL (≈ 4.11 µM)
- IC50 (PC-13): 26 µg/mL (≈ 83.5 µM)
- IC50 (HT-1080): > 100 µg/mL
- IC50 (PC-3): > 100 µg/mL
- IC50 (OST): 51 µg/mL (≈ 164 µM)
- IC50 (PC-6): 12 µg/mL (≈ 38.5 µM)

SMILES: N#Cc1ncn(C2O[C@H](CO)[C@@H](O)[C@H]2O)c1C#CCO (some centres not stated)
- IC50 (L1210 [1]): 4.1 µg/mL (≈ 14.7 µM)

SMILES: NC(=O)c1ncn(C2O[C@H](CO)[C@@H](O)[C@H]2O)c1C#CCO (some centres not stated)
- IC50 (T-24): 8.8 µg/mL (≈ 29.6 µM)
- IC50 (SW480): 3.8 µg/mL (≈ 12.8 µM)
- IC50 (Lu-65): 54 µg/mL (≈ 182 µM)
- IC50 (KB): 7.5 µg/mL (≈ 25.2 µM)
- IC50 (L1210 [1]): 0.7 µg/mL (≈ 2.35 µM)
- IC50 (PC-13): 44 µg/mL (≈ 148 µM)
- IC50 (PC-3): 54 µg/mL (≈ 182 µM)
- IC50 (OST): > 100 µg/mL

SMILES: C=Cc1c(C(N)=O)ncn1C1O[C@H](CO)[C@@H](O)[C@H]1O (some centres not stated)
- inhibition at 100 µg/mL (L1210 [2]): 0.4%

SMILES: NC(=O)c1ncn(C2O[C@H](CO)[C@@H](O)[C@H]2O)c1C#Cc1ccccc1 (some centres not stated)
- IC50 (L1210 [1]): 20.6 µg/mL (≈ 60 µM)

SMILES: N#Cc1ncn(C2O[C@H](CO)[C@@H](O)[C@H]2O)c1C#CCCO (some centres not stated)
- IC50 (L1210 [1]): 3.3 µg/mL (≈ 11.3 µM)

SMILES: CC(C)(O)C#Cc1c(C(N)=O)ncn1C1O[C@H](CO)[C@@H](O)[C@H]1O (some centres not stated)
- IC50 (L1210 [1]): 4.8 µg/mL (≈ 14.8 µM)

SMILES: CCCC#Cc1c(C#N)ncn1C1O[C@H](CO)[C@@H](O)[C@H]1O (some centres not stated)
- IC50 (L1210 [1]): 14.8 µg/mL (≈ 50.8 µM)

SMILES: NC(=O)c1ncn(C2O[C@H](CO)[C@@H](O)[C@H]2O)c1C#CCCc1ccccc1 (some centres not stated)
- inhibition at 100 µg/mL (L1210 [2]): 8.5%

SMILES: NC(=O)c1ncn(C2O[C@H](CO)[C@@H](O)[C@H]2O)c1C#CC1CCCCC1 (some centres not stated)
- inhibition at 100 µg/mL (L1210 [2]): 18.9%

SMILES: C#Cc1c(C#N)ncn1C1O[C@H](CO)[C@@H](O)[C@H]1O (some centres not stated)
- IC50 (L1210 [1]): 1.9 µg/mL (≈ 7.62 µM)

SMILES: N#Cc1ncn(C2O[C@H](CO)[C@@H](O)[C@H]2O)c1C#Cc1ccccc1 (some centres not stated)
- IC50 (L1210 [1]): 80.3 µg/mL (≈ 247 µM)

SMILES: NC(=O)c1ncn(C2O[C@H](CO)[C@@H](O)[C@H]2O)c1C#CCC1CCCC1 (some centres not stated)
- inhibition at 100 µg/mL (L1210 [2]): -10.7%

SMILES: C#Cc1c(C(N)=O)ncn1[C@@H]1O[C@H](CO)[C@@H](O)[C@H]1O
- IC50 (PC-8): 0.54 µg/mL (≈ 2.02 µM)
- IC50 (QG-56): 0.18 µg/mL (≈ 0.674 µM)
- IC50 (HL-60): 0.23 µg/mL (≈ 0.861 µM)
- IC50 (HT-1376): 0.14 µg/mL (≈ 0.524 µM)
- IC50 (T-24): 0.88 µg/mL (≈ 3.29 µM)
- IC50 (HOS): 0.28 µg/mL (≈ 1.05 µM)
- IC50 (SW480): 3.3 µg/mL (≈ 12.3 µM)
- IC50 (Calu-1): 0.21 µg/mL (≈ 0.786 µM)
- IC50 (Lu-65): 3.8 µg/mL (≈ 14.2 µM)
- IC50 (KU-2 cell line): < 0.1 µg/mL
- IC50 (U-937): 0.11 µg/mL (≈ 0.412 µM)
- IC50 (QG-90): 0.23 µg/mL (≈ 0.861 µM)
- IC50 (KB): 12 µg/mL (≈ 44.9 µM)
- IC50 (COLO 205): 0.11 µg/mL (≈ 0.412 µM)
- IC50 (K562): 0.17 µg/mL (≈ 0.636 µM)
- IC50 (RPMI-8226): 0.44 µg/mL (≈ 1.65 µM)
- IC50 (L1210 [1]): 0.18 µg/mL (≈ 0.674 µM)
- IC50 (CCRF-CEM): 1.03 µg/mL (≈ 3.85 µM)
- IC50 (PANC-1): 0.16 µg/mL (≈ 0.599 µM)
- IC50 (PC-13): 86 µg/mL (≈ 322 µM)
- IC50 (G-292): 2.55 µg/mL (≈ 9.54 µM)
- IC50 (HT-1080): 3 µg/mL (≈ 11.2 µM)
- IC50 (PC-3): 96 µg/mL (≈ 359 µM)
- IC50 (OST): 28 µg/mL (≈ 105 µM)
- IC50 (PC-6): 0.46 µg/mL (≈ 1.72 µM)
- IC50 (SAOS-2): 4.23 µg/mL (≈ 15.8 µM)

SMILES: NC(=O)c1ncn([C@@H]2O[C@H](CO)[C@@H](O)[C@H]2O)c1O [MIZORIBINE]
- IC50 (T-24): > 100 µg/mL
- IC50 (SW480): 42 µg/mL (≈ 162 µM)
- IC50 (Lu-65): > 100 µg/mL
- IC50 (KB): > 100 µg/mL
- IC50 (PC-13): > 100 µg/mL
- IC50 (HT-1080): > 100 µg/mL
- IC50 (PC-3): > 100 µg/mL
- IC50 (OST): > 100 µg/mL
- IC50 (PC-6): 49 µg/mL (≈ 189 µM)

SMILES: N#CCCCC#Cc1c(C(N)=O)ncn1C1O[C@H](CO)[C@@H](O)[C@H]1O (some centres not stated)
- Inhibition (L1210 [3]): 3.6%

SMILES: O=c1[nH]cc(F)c(=O)[nH]1 [FLUOROURACIL]
- IC50 (PC-8): 0.42 µg/mL (≈ 3.23 µM)
- IC50 (QG-56): 0.18 µg/mL (≈ 1.38 µM)
- IC50 (HL-60): 1.33 µg/mL (≈ 10.2 µM)
- IC50 (HT-1376): 0.58 µg/mL (≈ 4.46 µM)
- IC50 (HOS): 0.79 µg/mL (≈ 6.07 µM)
- IC50 (Calu-1): > 3.3 µg/mL
- IC50 (KU-2 cell line): 0.28 µg/mL (≈ 2.15 µM)
- IC50 (U-937): 0.11 µg/mL (≈ 0.846 µM)
- IC50 (QG-90): 0.22 µg/mL (≈ 1.69 µM)
- IC50 (COLO 205): 0.1 µg/mL (≈ 0.769 µM)
- IC50 (K562): 2.2 µg/mL (≈ 16.9 µM)
- IC50 (RPMI-8226): 0.07 µg/mL (≈ 0.538 µM)
- IC50 (CCRF-CEM): 2.1 µg/mL (≈ 16.1 µM)
- IC50 (PANC-1): 0.22 µg/mL (≈ 1.69 µM)
- IC50 (G-292): > 3.3 µg/mL
- IC50 (SAOS-2): 0.78 µg/mL (≈ 6 µM)

SMILES: CCCCC#Cc1c(C(N)=O)ncn1C1O[C@H](CO)[C@@H](O)[C@H]1O (some centres not stated)
- IC50 (L1210 [1]): 2.29 µg/mL (≈ 7.08 µM)
